Where only a bound is given, the exact number is not on record here.

For one assay, the system named is MX-1. The experiment in a line: Methylene Blue Cell Growth Inhibition Assay, MX-1. The class given is cell-based. Particulars: Homo sapiens, MX1, 72 h, read-out: MEB MX-1 IC50.
The next assay has as its system A549. Kind of assay: Methylene Blue Cell Growth Inhibition Assay, A549. The class given is cell-based. Particulars: Homo sapiens, 72 h, read-out: MEB A549 IC50. The method, then:
Normal human foreskin fibroblasts (HFF), human colon (HCT116, RKO), lung (H460, A549) and breast (MCF7) tumor cell lines were cultured in high glucose DMEM (Life Technologies) containing 10% fetal bovine serum (FBS) at 37° C. in a humidified 5% CO2, 95% air incubator. Cells were harvested using trypsin/EDTA, counted using a haemocytometer, and plated in 100 μL of culture media per well, at the following densities, in a 96-well tissue culture plate (Falcon 3075): HFF 5,000 cells/well, HCT116 3,000 cells/well, RKO 2,500 cells/well, H460 2,500 cells/well, A549 5,000 cells/well, MCF7 4,000 cells/well. The next day, compounds were diluted in low glucose DMEM containing 100 μg/mL gentamicin, at twice the final required concentration, from 10 mM stock solutions in DMSO. 100 μL/well of these dilutions were added to the 100 μL of media currently in the assay plates. Medium containing 0.6% DMSO was added to control wells. The final concentration of DMSO in all wells was 0.3%. Cells were incubated at 37° C., 5% CO2 for 72 h. Medium was removed by aspiration. Cell biomass was estimated by staining cells with 80 μL per well methylene blue (Sigma M9140, 0.5% in 50:50 ethanol:water), and incubation at room temperature for 30-60 min. Stain was removed by aspiration and the plates rinsed by immersion in water, then air-dried. To release stain from the cells, 100 μL of solubilization solution was added (1% N-lauroyl sarcosine, Sodium salt, Sigma L5125, in PBS), and plates were shaken gently for about 30 min. Optical density at 620 nm was measured on a microplate reader. Percent inhibition of cell growth was calculated relative to vehicle treated control wells. Concentration of compound that inhibits 50% of cell growth (IC50) was interpolated using nonlinear regression (Levenberg-Marquardt) and the equation, y=Vmax*(1−(x/(K+x)))+Y2, where “K” was equal to the IC50.

A further assay has as its target T1, PLK1 kinase domain (Homo sapiens, UniProt P53350).
T1 construct: made in house; host or cells: baculovirus infected T. ni cells
Kind of assay: Assay for Inhibition of PLK1 (33P SPA kinase assay). Type of assay: biochemical. Particulars: 2 nM PLK1 kinase domain, 1 μM ATP; read-out: PLK1 pIC50 (converted). Here is the method:
All procedures were performed at 4° C. Cells were lysed in 50 mM HEPES, 200 mM NaCl, 50 mM imidazole, 5% glycerol; pH 7.5. The homogenate was centrifuged at 14K rpm in a SLA-1500 rotor for 1 h and the supernatant filtered through a 1.2 micron filter. The supernatant was loaded onto a Nickel chelating Sepharose (Amersham Pharmacia) column and washed with lysis buffer. Protein was eluted using 20%, 30% and 100% buffer B steps where buffer B is 50 mM HEPES, 200 mM NaCl, 300 mM imidazole, 5% glycerol; pH 7.5. Fractions containing PLK were determined by SDS-PAGE. Fractions containing PLK were diluted five-fold with 50 mM HEPES, 1 mM DTT, 5% glycerol; pH 7.5, then loaded on an SP Sepharose (Amersham Pharmacia) column. After washing the column with 50 mM HEPES, 1 mM DTT, 5% glycerol; pH 7.5, PLK was step eluted with 50 mM HEPES, 1 mM DTT, 500 mM NaCl; 5% glycerol; pH 7.5. PLK was concentrated using a 10 kDa molecular weight cutoff membrane and then loaded onto a Superdex 200 gel filtration (Amersham Pharmacia) column equilibrated in 25 mM HEPES, 1 mM DTT, 500 mM NaCl, 5% glycerol; pH 7.5. Fractions containing PLK were determined by SDS-PAGE. PLK was pooled, aliquoted and stored at −80° C. Samples were quality controlled using mass spectrometry, N-terminal sequencing and amino acid analysis.
B. Enzyme activity +/− inhibitors was determined as follows:
All measurements were obtained under conditions where signal production increased linearly with time and enzyme. Test compounds were added to white 384-well assay plates (0.1 μL for 10 μL and some 20 μl assays, 1 μL for some 20 μL assays) at variable known concentrations in 100% DMSO. DMSO (1-5% final, as appropriate) and EDTA (65 mM in reaction) were used as controls.
Reaction Mix (10 or 20 μL) was quickly added to each well immediately following addition of enzyme via automated liquid handlers and incubated 1-1.5 h at 22° C. The 20 μL enzymatic reactions were stopped with 50 μL of stop mix (50 mM EDTA, 4.0 mg/mL Streptavidin SPA beads in Standard Dulbecco's PBS (without Mg^2+ and Ca^2+), 50 μM ATP) per well. The 10 μL reactions were stopped with 10 μL of stop mix (50 mM EDTA, 3.0 mg/mL Streptavidin-coupled SPA Imaging Beads (“LeadSeeker”) in Standard Dulbecco's PBS (without Mg^2+ and Ca^2+), 50 μM ATP) per well. Plates were sealed with clear plastic seals, spun at 500×g for 1 min or settled overnight, and counted in Packard TopCount for 30 seconds/well (regular SPA) or imaged using a Viewlux imager (LeadSeeker SPA). Signal above background (EDTA controls) was converted to percent inhibition relative to that obtained in control (DMSO-only) wells.

T1 sequence (P53350 21-346): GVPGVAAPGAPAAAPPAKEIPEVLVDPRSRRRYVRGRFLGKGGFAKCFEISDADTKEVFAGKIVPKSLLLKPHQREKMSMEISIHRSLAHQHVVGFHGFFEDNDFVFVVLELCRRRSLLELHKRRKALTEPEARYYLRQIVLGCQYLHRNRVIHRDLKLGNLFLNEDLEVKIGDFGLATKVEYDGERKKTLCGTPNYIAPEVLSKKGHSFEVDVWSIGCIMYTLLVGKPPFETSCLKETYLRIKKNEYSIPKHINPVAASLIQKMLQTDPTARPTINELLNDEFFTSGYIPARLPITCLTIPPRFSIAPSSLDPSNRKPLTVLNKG

`C[C@@H](Oc1cc(-n2cnc3cc(-c4ccc(N5CCNCC5)nc4)ccc32)sc1C(N)=O)c1ccccc1C(F)(F)F` [Example 1, 5-{5-[6-(1-piperazinyl)-3-pyridinyl]-1H-benzimidazol-1-yl}-3-({(1R)-1-[2-(trifluoromethyl)phenyl]ethyl}oxy)-2-thiophenecarboxamide]: the results for the IC50 in the assay with MX-1, with A549 and on PLK1 kinase domain were 100 to 1000 nM, 100 to 1000 nM and < 10 nM, respectively.
With `C[C@@H](Oc1cc(-n2cnc3cc(-c4ccc(N5CCNCC5)nc4)ccc32)sc1C(N)=O)c1ccccc1Cl` [Example 7, 3-{[(1R)-1-(2-Chlorophenyl)ethyl]oxy}-5-{5-[6-(1-piperazinyl)-3-pyridinyl]-1H-benzimidazol-1-yl}-2-thiophenecarboxamide], the IC50 on PLK1 kinase domain was < 10 nM.
Regarding `C[C@@H](Oc1cc(-n2cnc3cc(-c4cnn(C)c4)ccc32)sc1C(N)=O)c1ccccc1Cl` [Example 9, 3-{[(1R)-1-(2-Chlorophenyl)ethyl]oxy}-5-[5-(1-methyl-1H-pyrazol-4-yl)-1H-benzimidazol-1-yl]-2-thiophenecarboxamide], the IC50 with MX-1 and with A549 was < 100 nM each time.

The values above are taken from patent publication US20080214563A1, “Benzimidazole Thiophene Compounds As Plk Modulators” (priority 2005, published 2008).
